Data as given in patent US20100261711A1, “SELECTIVE ANTICONVULSANT AGENTS AND THEIR USES” (WiSys Technology Foundation, priority 2009, published 2010).
Where two headings read alike, the source gives them in different places. Marks after values point to notes of the source that are not given here.

What was measured:
[1] = system: Metrazol-induced clonic seizures; assay: Subcutaneous Metrazol test (scMet), rats; assay type: in vivo
Description: (§1) The benzodiazepine derivative compounds selective for GABAa receptor subunits were tested for the ability to suppress seizures in several standard rat and mouse models of epilepsy. […] The standard models incorporated into anticonvulsant screening include the maximal electroshock test (MES), the subcutaneous Metrazol test (scMet), and evaluations of toxicity (TOX). The data for each condition is presented as a ratio of either the number of animals protected or toxic (loss of locomotor activity) over the number of animals tested at a given time point and dose.
(§2) Subcutaneous injection of the convulsant Metrazol produces clonic seizures in laboratory animals. […] Animals are pretreated with various doses of the test compound (in a similar manner to the MES test, although a dose of 50 mg/kg (po) is the standard for Test 2 scMet). At the previously determined TPE of the test compound, the dose of Metrazol which will induce convulsions in 97% of animals (CD97: 85 mg/kg mice) is injected into a loose fold of skin in the midline of the neck. […] An episode of clonic spasms, approximately 3-5 seconds, of the fore and/or hindlimbs, jaws, or vibrissae is taken as the endpoint.

[2] = system: MES-induced seizures; assay: Maximal electroshock test (MES), mice; assay type: in vivo
Description: as §1
(§3) The MES is a model for generalized tonic-clonic seizures and provides an indication of a compound's ability to prevent seizure spread when all neuronal circuits in the brain are maximally active. These seizures are highly reproducible and are electrophysiologically consistent with human seizures. For all tests based on MES convulsions, 60 Hz of alternating current (50 mA in mice, 150 in rats) is delivered for by corneal electrodes which have been primed with an electrolyte solution containing an anesthetic agent (0.5% tetracaine HCL). For Test 1, mice are tested at various intervals following doses of 30, 100 and 300 mg/kg of test compound given by ip injection of a volume of 0.01 mL/g. In Test 2, rats are tested after a dose of 30 mg/kg (po) in a volume of 0.04 mL/g. Test 8 uses varying doses administered via i.p. injection, again in a volume of 0.04 ml/g. […] In Antiepileptic Drugs, Levy, R. H. M., Meldrum, B. S., Eds.; Raven Press: New York, pp 99-110, 1995b.).

[3] = system: minimal motor deficit (ataxia, abnormal gait); assay: Toxicity (TOX), minimal motor deficit, rats; assay type: in vivo; conditions: Rat PO; for Tox, animals toxic/tested: 50 mg/kg
Description: as §1
(§4) To assess a compound's undesirable side effects (toxicity), animals are monitored for overt signs of impaired neurological or muscular function. […] When a mouse is placed on a rod that rotates at a speed of 6 rpm, the animal can maintain its equilibrium for long periods of time. The animal is considered toxic if it falls off this rotating rod three times during a 1-min period. In rats, minimal motor deficit is indicated by ataxia, which is manifested by an abnormal, uncoordinated gait. Rats used for evaluating toxicity are examined before the test drug is administered, since individual animals may have peculiarities in gait, equilibrium, placing response, etc., which might be attributed erroneously to the test substance.

[4] = Toxicity (TOX), minimal motor deficit, rats; assay type: in vivo; conditions: in vivo; Rat IP
Description: as §1, §4

[5] = system: 6 Hz psychomotor seizure; assay: Minimal clonic seizure (6 Hz) test; assay type: in vivo; conditions: Mice IP; for ED50: Mus musculus, ip
From the text: Like the maximal electroshock (MES) test, the minimal clonic seizure (6 Hz) test is used to assess a compound's efficacy against electrically-induced seizures but uses a lower frequency (6 Hz) and longer duration of stimulation (3 s). Test compounds are pre-administered to mice via ip injection. […] Untreated mice will display seizures characterized by a minimal clonic phase followed by stereotyped, automatistic behaviors described originally as being similar to the aura of human subjects with partial seizures. Animals not displaying this behavior are considered protected (Table 10).

[6] = system: minimal muscular or neurological impairment; assay: Toxicity (TOX), rotorod procedure, mice; assay type: in vivo
Description: as §1, §4

[7] = system: MES-induced seizures; assay: Maximal electroshock test (MES), rats; assay type: in vivo; conditions: Rat PO; for MES, animals protected/tested: 30 mg/kg
Description: as §1, §3

[8] = system: Metrazol-induced clonic seizures; assay: Subcutaneous Metrazol test (scMet), mice; assay type: in vivo
Description: as §1, §2

[9] = system: kindled motor seizure; assay: Hippocampus kindling screen; assay type: in vivo; conditions: Rats IP, 3 mg/kg after 4 h
From the text: The hippocampus kindling screen is a useful adjunct to the traditional MES and scMet tests for identification of a substance potential utility for treating complex partial seizures. […] No toxic effects were observed as indicated by the lack of motor impairment on the rats tested.

[10] = system: minimal motor deficit (ataxia, abnormal gait); conditions: Rat PO; from Antiepileptic Drugs, 5th ed., Levy et al., 2002; cited from earlier work
[11] = system: Metrazol-induced clonic seizures; conditions: Rat PO; from Antiepileptic Drugs, 5th ed., Levy et al., 2002; cited from earlier work
[12] = system: MES-induced seizures; conditions: Mice IP; from Antiepileptic Drugs, 5th ed., Levy et al., 2002; cited from earlier work
[13] = system: Metrazol-induced clonic seizures; conditions: Mice IP; from Antiepileptic Drugs, 5th ed., Levy et al., 2002; cited from earlier work
[14] = system: MES-induced seizures; conditions: Rat PO; from Antiepileptic Drugs, 5th ed., Levy et al., 2002; cited from earlier work
[15] = system: minimal muscular or neurological impairment; conditions: Mice IP; from Antiepileptic Drugs, 5th ed., Levy et al., 2002; cited from earlier work
[16] = Toxicity (TOX), rotorod procedure, mice; assay type: in vivo; conditions: mouse, in vivo; IP route in mice (footnote of Table 10); read-out: TD50
Description: as §1, §4

[17] = molecular target: T1, GABAA/α1 (α1β3γ2 GABAA receptors) (Homo sapiens, UniProt P14867+P18507); assay: Competitive binding assay, [3H]flunitrazepam; conditions: αxβ3γ2, [3H]flunitrazepam competition; read-out: Binding Affinity at GABAA/α1
T1 construct: expressed in transfected cells
How it was run: (§5)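 Bound ligand was collected on 0.3% polyethyleneimine-pretreated GF/C filters with three ice-cold washes and quantified by liquid scintillation counting; membrane protein was determined against a BSA standard.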

[18] = molecular target: T2, GABAA/α5 (α5β3γ2 GABAA receptors) (Homo sapiens, UniProt P18507+P31644); assay: Competitive binding assay, [3H]flunitrazepam; conditions: Binding Affinity at GABAA/α5, αxβ3γ2, [3H]flunitrazepam competition
T2 construct: expressed in transfected cells
How it was run: as §5

[19] = molecular target: T3, GABAA/α4 (α4β3γ2 GABAA receptors) (Homo sapiens, UniProt P18507+P48169); assay: Competitive binding assay, [3H]flunitrazepam
T3 construct: expressed in transfected cells

[20] = molecular target: T4, GABAA/α3 (α3β3γ2 GABAA receptors) (Homo sapiens, UniProt P18507+P34903); assay: Competitive binding assay, [3H]flunitrazepam; conditions: Binding Affinity at GABAA/α3, αxβ3γ2, [3H]flunitrazepam competition
T4 construct: expressed in transfected cells
How it was run: as §5

[21] = molecular target: T5, GABAA/α6 (α6β3γ2 GABAA receptors) (Homo sapiens, UniProt P18507+Q16445); assay: Competitive binding assay, [3H]flunitrazepam
T5 construct: expressed in transfected cells
How it was run: as §5

[22] = molecular target: T6, GABAA/α2 (α2β3γ2 GABAA receptors) (Homo sapiens, UniProt P18507+P47869); assay: Competitive binding assay, [3H]flunitrazepam; conditions: αxβ3γ2, [3H]flunitrazepam competition; read-out: Binding Affinity at GABAA/α2
T6 construct: expressed in transfected cells
How it was run: as §5

[23] = molecular target: GABAA/α3 (Homo sapiens, UniProt P18507+P34903); conditions: Huang et al., J. Med. Chem. 2000, 43, 71-95; cited from earlier work
[24] = molecular target: GABAA/α5 receptors (Homo sapiens, UniProt P18507+P31644); conditions: Huang et al., J. Med. Chem. 2000, 43, 71-95; cited from earlier work
[25] = molecular target: GABAA/α1 receptors (Homo sapiens, UniProt P14867+P18507); conditions: Huang et al., J. Med. Chem. 2000, 43, 71-95; cited from earlier work
[26] = molecular target: GABAA/α2 (Homo sapiens, UniProt P18507+P47869); conditions: Huang et al., J. Med. Chem. 2000, 43, 71-95; cited from earlier work
[27] = Mice, 50 mg/kg PO (Mice IP), 0.5 hr
[28] = Mice, 50 mg/kg PO (Mice IP), 4.0 hr
[29] = 32 mA, read-out: ED50 32 mA (6 Hz test)

C#Cc1ccc2c(c1)C(c1ccccc1Cl)=NCc1nnc(C)n1-2 [XLi-JY-DMH (23), 8-Acetyleno-5-(2′-chlorophenyl)-1-methyl-4H-s-triazolo-[4,3-a]-1,4-benzodiazepine]
ED50 ([1]; Rat IP): 4.2 mg/kg | ED50 ([1]; Rat PO): 1.58 mg/kg | scMet, animals protected/tested ([1]; Rat PO, 15 mg/kg, 0.5 h): 3/4^c | scMet, animals protected/tested ([1]; Rat PO, 15 mg/kg, 1.0 h): 2/4^c | scMet, animals protected/tested ([1]; Rat PO, 15 mg/kg, 2.0 h): 4/4^c | scMet, animals protected/tested ([1]; Rat PO, 15 mg/kg, 4.0 h): 2/4^c | scMet, animals protected/tested ([1]; Rat PO, 15 mg/kg, […]): 3/4^c | scMet, animals protected/tested ([1]; Rat PO, 50 mg/kg, 0.5 h): 4/4 | scMet, animals protected/tested ([1]; Rat PO, 50 mg/kg, 1.0 h): 4/4 | scMet, animals protected/tested ([1]; Rat PO, 50 mg/kg, 2.0 h): 4/4 | scMet, animals protected/tested ([1]; Rat PO, 50 mg/kg, 4.0 h): 3/4 | scMet, animals protected/tested ([1]; Rat PO, 50 mg/kg, […]): 4/4 | MES, animals protected/tested ([2]; Mice IP, 100 mg/kg, 0.5 hr): 3/3 | MES, animals protected/tested ([2]; Mice IP, 100 mg/kg, 4.0 hr): 3/3 | MES, animals protected/tested [2, 27]: 0/4 | MES, animals protected/tested [2, 28]: 0/4 | ED50 ([2]; Mus musculus, Mice IP): > 6 mg/kg | Tox, animals toxic/tested ([3]; 0.5 h): 0/4 | Tox, animals toxic/tested ([3]; 1.0 h): 0/4 | Tox, animals toxic/tested ([3]; 2.0 h): 0/4 | Tox, animals toxic/tested ([3]; 4.0 h): 0/4 | Tox, animals toxic/tested ([3]; […]): 0/4 | TD50 TOX ([3]; abnormal gait): 166.25 mg/kg | TD50 [4]: 2.08 mg/kg | ED50 [5, 29]: 0.17 mg/kg | ED50 ([5]; 44 mA, read-out: ED50 44 mA (6 Hz test)): 0.4 mg/kg | TOX (Rotorod Test), animals toxic/tested ([6]; Mice IP, 100 mg/kg, 0.5 hr): 6/8 | TOX (Rotorod Test), animals toxic/tested ([6]; Mice IP, 100 mg/kg, 4.0 hr): 2/4 | TD50 TOX ([6]; Mice IP, rotorod): 2.875 mg/kg | TOX (Rotorod Test), animals toxic/tested [6, 27]: 0/4 | TOX (Rotorod Test), animals toxic/tested [6, 28]: 0/4 | ED50 [7]: > 150 mg/kg | MES, animals protected/tested ([7]; 0.5 h): 0/4 | MES, animals protected/tested ([7]; 1.0 h): 0/4 | MES, animals protected/tested ([7]; 2.0 h): 0/4 | MES, animals protected/tested ([7]; 4.0 h): 0/4 | MES, animals protected/tested ([7]; […]): 0/4 | mice protected against scMet induced seizures ([8]; Mice IP, 100 mg/kg, 0.5 hr): 100% | scMet, animals protected/tested ([8]; Mice IP, 100 mg/kg, 0.5 hr): 1/1 | scMet, animals protected/tested ([8]; Mice IP, 100 mg/kg, 4.0 hr): 1/1 | scMet, animals protected/tested [8, 27]: 3/4 | scMet, animals protected/tested [8, 28]: 2/4 | ED50 ([8]; Mus musculus, Mice IP): 1.03 mg/kg | Tox, animals toxic/tested [9]: 0/2^c | Afterdischarge Duration, Drug (Low-High) ([9]; pre-drug 29-41): 29- s

O=C1CN=C(c2ccccc2Cl)c2cc([N+](=O)[O-])ccc2N1 [Clonazepan]
TD50 TOX [10]: 2.38 mg/kg | ED50 scMet [11]: 0.61 mg/kg | ED50 32 mA (6 Hz test) ([5]; 32 mA): 0.04 mg/kg | ED50 MES [12]: 25.6 mg/kg | ED50 scMet [13]: 0.02 mg/kg | ED50 MES [14]: 7.86 mg/kg | TD50 TOX [15]: 0.26 mg/kg

O=C1NC(=O)C(c2ccccc2)(c2ccccc2)N1 [Phenytoin]
TD50 TOX [10]: >1000 mg/kg | ED50 scMet [11]: >500 mg/kg | ED50 [5, 29]: > 40 mg/kg | ED50 MES [12]: 5.64 mg/kg | TD50 [16]: 51 mg/kg | ED50 scMet [13]: >50 mg/kg | ED50 MES [14]: 28.1 mg/kg

C#Cc1ccc2c(c1)C(c1ccccc1)=NCC(=O)N2C [QH-II-066, 1-Methyl-7-acetyleno-5-phenyl-1,3-dihydro-benzo[e]-1,4-diazepin-2-one]
Ki [17]: 76.3 nM | Ki [18]: 6.8 nM | Ki [19]: > 1000 nM | Ki [20]: 47.4 nM | Ki [21]: > 1000 nM | Ki [22]: 42.1 nM | Ki [23]: < 50 nM | Ki [24]: < 10 nM | Ki [25]: > 70 nM | Ki [26]: < 50 nM

NC(=O)N1c2ccccc2C=Cc2ccccc21 [Carbamazepine]
ED50 scMet [11]: >250 mg/kg | ED50 [5, 29]: > 40 mg/kg | ED50 MES [12]: 7.81 mg/kg | TD50 [16]: 41 mg/kg | ED50 scMet [13]: >50 mg/kg | ED50 MES [14]: 5.35 mg/kg
